# Reference: a melting point compilation (Tetko et al.; mined from patent text by program, amines drawn as free bases though some values may be those of a salt)
row,Compound,melting point
1,CN(CCc1ccc(Nc2ncc3c(n2)-c2ccccc2[C@H](c2ccc(F)cc2)C3)cc1)C1CCCCC1,160 to 162 °C
2,COc1cccc(N2Sc3ccccc3CC2=O)c1OCc1ccccc1,151 to 153 °C
3,CCC(CCC(=C(C#N)C(N)=O)c1cc(O)c(O)c(O)c1)NC(=O)C(C#N)=Cc1cc(O)c(O)c(O)c1 (configuration not stated),> 300 °C
4,c1ccc(-c2noc(COc3ccc(CCCn4ccnc4)cc3)n2)cc1,124 to 125 °C
5,CCCCOC(=O)CCCCSc1cc(C)nc(N)n1,45 to 47 °C
6,CC1CNCC1NC(=O)OC(C)(C)C (configuration not stated),86.8 to 87 °C
7,O=C(OCc1ccccc1)c1ccc2cc(OCc3ccccc3)ccc2c1,97 to 98 °C
8,CC[C@H](C)[C@H](NC(=O)O[C@@H](CC(C)C)C(=O)O)C(=O)NC1CCCCC1,193 to 195 °C
9,Cc1ccnc(Nc2nc(-c3c[nH]nc3C(O)c3ccccc3)cs2)n1 (configuration not stated),250 °C
10,Cc1cccc(NC(=O)c2ccn3c2CSC3c2cccnc2)n1 (configuration not stated),162 °C
11,Cc1nc(C=Cc2nc3ccc(F)cc3c(=O)n2-c2ccccc2Cl)cs1,231 to 232 °C
12,O=CC1(Nc2ccccc2)CCN(CCc2ccccc2)CC1,83 to 84 °C
13,Brc1cccc(C2Cc3cnc(Nc4ccc(CCNCCN5CCOCC5)cc4)nc3-c3ccccc32)c1 (configuration not stated),85 to 87 °C
14,O=C1C2CC(CN(Cc3ccccc3)C2)CN1Cc1ccccc1 (configuration not stated),82.5 to 83.5 °C
15,COc1cc(Nc2nccc(-c3ccc(N4CCNCC4)nc3)n2)cc(OC)c1OC,103 °C
16,CCCCCCSc1ncnc2c1ncn2C1CC(F)C(CO)O1 (configuration not stated),46 to 49 °C
17,FC(F)(F)c1cnc(Cc2ccc(Cl)cc2)c(Cl)c1,54 to 56 °C
18,Nc1nc(SC2C=CCCC2)c2ncn(C3C=CC(CO)C3)c2n1 (configuration not stated),138 to 140 °C
19,Nc1c(Cl)cc(C(O)CNCCCCCCOCCCc2ccc(CO)cc2)cc1Cl (configuration not stated),56 to 59 °C

row,Compound,melting point
1,N#Cn1c(SCC(=O)N2CCCc3ccccc32)nc2ccccc21,153 to 154 °C
2,N#CSCC(Cl)=C(Cl)CCl,60 to 63 °C
3,CCn1ncnc1COc1nn2c(-c3ccccc3F)nncc2c1-c1ccsc1,187 to 193 °C
4,c1ccc(COc2cccc3cc(C4=NCCS4)[nH]c23)cc1,129 to 130 °C
5,C[C@H](Cn1ccnc1)NC(=O)c1c[nH]c2ncc(-c3nn(C)c4cc(Cl)ccc34)nc12,276 to 279 °C
6,Cn1cc(SC(C)(C)C)c(=O)c(-c2ccc(Cl)c(C(F)(F)F)c2)c1,138 to 142 °C
7,c1ccc(CN2CCC3(CC2)OCCO3)cc1,< 50 °C
8,Cc1cc(N2CC=C(C(=O)OC(C)C)CC2)c2cccc(-c3ccc(Cl)cc3Cl)c2n1,131 to 133 °C
9,Cc1cc(C(=O)NC2CC2)ccc1N1CCN(Cc2cc(C)c3c(c2)NC(=O)C(C)O3)CC1 (configuration not stated),241 to 242 °C
10,CCCCc1nnc2ccccc2c1Cc1ccc(-c2ccccc2C(=O)O)cc1,210 °C
11,CCCc1c(OCCCCc2ccc3cc(O)c(O)cc3c2)ccc(C(=O)O)c1O,173 to 175 °C
12,N#CSc1cc(-c2ccccc2)c(O)c(-c2ccccc2)c1,104 to 106 °C
13,Clc1ccc(-c2ccc(OCCCBr)cc2)cc1,103 to 105 °C
14,Cc1ccc(C(N)=S)nc1,172 to 173 °C
15,CCCCN(CCCC)c1ccc(C=Cc2ccc(C=CC3=C(C#N)C(=C(C#N)C#N)OC3(C)C)cc2)c(OC)c1,258 to 260 °C
16,Cc1oc(-c2ccccc2)nc1COc1ccc(Cn2cc(CO)c(C(C)C)n2)cc1,98 to 99 °C
17,Cn1ncc(/C=C/C(=O)Nc2ccc(Cc3ccccn3)cc2)c1-c1ccc(F)cc1,215 to 216 °C
18,CCC12CCC(NC(=O)C=CC(=O)OC)C3Oc4c(O)ccc5c4C31CCN(CC1CC1)C2C5 (configuration not stated),233 to 236 °C

# Second part, the compound after the results:
row,melting point,Compound
1,194 °C,CN1C(=O)Cn2c1nc(C(=O)O)c(OCc1ccccc1)c2=O
2,176 to 178 °C,COc1ccc2sc(Nc3ccc(OCCCl)cc3)nc2c1
3,298 to 300 °C,NC(=O)c1c[nH]c2cc(Cl)c([N+](=O)[O-])cc2c1=O
4,129 to 131 °C,O=[N+]([O-])c1cc([N+](=O)[O-])c(Nc2nc(Cl)ccc2C(F)(F)F)c(C(F)(F)F)c1
5,131 to 136 °C,O=CNc1cc(Cl)ccc1C=O
6,226 °C,O=C(O)c1cccn2cc(-c3ccccc3)nc12
7,113 to 114 °C,Nc1cccc(Cl)c1O
8,82 °C,O=C(c1ccccc1)c1ccc(OCCO)cc1
9,169 to 171 °C,CCOP(=O)(OCC)c1cccc2c(P(=O)(OCC)OCC)cccc12
10,176 to 178 °C,Cc1c(C)c2c(c(C)c1O)CCC(C)(C(=O)N1CCC(Oc3ccc([N+](=O)[O-])cc3)C1)O2 (configuration not stated)
11,154 to 155 °C,Cc1nc(-c2ccccc2)nc(NCC(=O)N(C)c2ccccc2)c1Cl
12,145 to 147 °C,COc1ccc(C(=O)Nc2ccc(Cl)c(Cl)c2)cc1NCc1cccnc1
13,155 to 157 °C,COc1ccc(NC(=O)NCC2(c3ccccc3)CCCCC2)cc1
14,139 to 140 °C,CCOC(=O)c1nc(-c2ccccc2)nc2c1c1ccc(Cl)cc1n2C
15,30 °C,CCOC(=O)c1cc(Br)c(C(=O)OCC)cc1F
16,194 to 198 °C,COC(=O)c1ccc(C=C2Cc3ccccc3C2=O)cc1
17,121 to 122 °C,CC(=O)OC1OCC[C@@H]1NC(=O)[C@H](CC(C)C)NC(=O)[C@H](CC(C)C)NC(=O)c1ccc2c(c1)Nc1ccccc1S2 (some centres not stated)
18,290 °C,CCOC(=O)c1n[nH]c2c(=O)[nH]c3cc(Cl)ccc3c(=O)c12

row,melting point,Compound
1,190 to 193 °C,Cc1cc(NC(=O)c2c(Cl)cccc2Cl)c2nccc(Cl)c2c1C
2,70.5 to 71.5 °C,O=C(Cc1ccc(Cl)c(Cl)c1)N1C(=O)OC[C@@H]1Cc1ccccc1
3,202 to 204 °C,CCOCc1nc2c(N)nc3cc(-c4cccnc4)ccc3c2n1CC(O)CO (configuration not stated)
4,206 to 208 °C,Cc1ccc2cccc(OCc3c(Cl)ccc(S(N)(=O)=O)c3Cl)c2n1
5,60 to 64 °C,O=c1c(Cl)c(Cl)cnn1COCc1ccccc1
6,134 to 135 °C,CN(C)C(=O)CCN1CCC(C(O)(c2ccc(F)cc2)c2ccc(F)cc2)CC1
7,203 to 204 °C,COc1ccc(C(=O)Nc2nc(C)c(C(=O)NCc3ccccc3)s2)cc1
8,197 to 198 °C,CCNC(=O)c1cccc2c1c(=O)n(Cc1cccnc1)n2C(=O)OCC
9,86 to 88 °C,COc1ccc(C(C)(C)C(=O)O)cc1
10,98 to 101 °C,COC(=O)c1c([N+](=O)[O-])cccc1S(=O)(=O)N(C)CCO
11,96 °C,O=S1(=O)Nc2cccc3c2N1CCC3
12,149 to 150 °C,Nc1ccc(CCC(=O)Nc2ccc(Cl)cc2Cl)cc1N
13,71 to 73 °C,CCN(CC)C(=O)c1ccc2ccccc2c1-c1ccsc1
14,134 °C,CCOC(=O)C1=C(C)N2CCNC2=C(C(=O)OCC)C1c1cccs1 (configuration not stated)
15,144 to 145 °C,CCOC(=O)NC(=S)CNc1ccc(C(=O)OC)c(S(=O)(=O)NC(=O)Nc2nc(OC)cc(OC)n2)c1
16,158 to 160 °C,O=C(O)CCCCCOc1ccc(C2OC3C(CO)OC(n4ccc(=O)[nH]c4=O)C3O2)cc1 (configuration not stated)
17,88 to 90 °C,CN(C)CCCNC(=O)c1cccc(-c2nnc(CSCCOc3ccccc3)o2)c1
